Results as given in US8999983B2, “Modulators of Hec1 activity and methods therefor” (Taivex Therapeutics Corporation, priority 2011, dated 2015).

Tests used:
Assay type in all cases: cell-based
MDA-MB-468 = test: Antiproliferation assay (MTS), MDA-MB-468 cells; details: Homo sapiens, MDA-MB-468, 96 h, Table 1, read-out: Antiproliferative IC50 MDA-MB-468
Summary of the method: (§1)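 Cells seeded after overnight attachment were treated in triplicate for 96 h at 37 °C, 5% CO2, final DMSO below 1%. Viability read by MTS absorbance; concentration-response curves fitted by linear regression against DMSO controls.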

[1] = system: caspase-3, PARP, Mcl-1 and XIAP; test: Immunoblot of apoptotic pathway proteins; details: 1 μM, 24 or 48 hours
Description: Immunoblot Analysis: For immunoblotting experiments, cells were plated in a 6-well culture plate and cultured overnight. Cells were incubated with the test compounds for the indicated time and whole cell lysate was harvested by adding 1×SDS-PAGE Sample Buffer (62.5 mM Tris-HCl (pH 6.8 at 25° C.), 2% w/v SDS, 10% glycerol, 50 mM DTT, and 0.01% w/v bromophenol blue or phenol red). Proteins were separated by SDS-PAGE electrophoresis and transferred to PVDF membrane. Protein expression was immunoblotted using various primary antibodies and detected using Immobilon Western Chemiluminescent HRP Substrate (Millipore, Billerica Mass. 01821 USA). Antibodies used include anti-Cleaved Caspase3, (Rabbit, Cell Signaling Technology, Danvers Mass. 01923 USA); anti-PARP (Rabbit, Cell Signaling Technology, Danvers Mass. 01923 USA); anti-MCL-1 (mouse, BD Biosciences, San Jose Calif. 95131 USA); anti-XIAP (rabbit, Cell Signaling Technology, Danvers Mass. 01923 USA); anti-Bcl-2 (mouse, Santa Cruz Biotechnology, Santa Cruz Calif. 95060); anti-Cyclin BI (mouse, BD Biosciences, San Jose Calif. 95131 USA); anti-Cyclin D1 (mouse, Santa Cruz Biotechnology, Santa Cruz Calif. 95060); Anti-Nek2 (mouse, BD Biosciences, San Jose Calif. 95131 USA); Anti-HEC1, (rabbit, GeneTex, Inc., Irvine Calif. 92606 USA); and anti-actin (mouse, Millipore, Billerica Mass. 01821 USA).
100 nM Taxol was used as a positive control drug for apoptosis.

K562 = test: Antiproliferation assay (MTS), K562 cells; details: Homo sapiens, K562, 96 h, Table 1, read-out: Antiproliferative IC50 K562
Summary of the method: as §1

Hec1-Nek2 interaction = biological target: T1, Hec1-Nek2 interaction (Homo sapiens, UniProt O14777); test: Co-immunoprecipitation analysis of Hec1-Nek2 interaction in K562 cells; details: K562 cells treated 8 or 16 hours
T1 construct: endogenous in cells; host or cells: K562
T1 sequence (O14777 1-642): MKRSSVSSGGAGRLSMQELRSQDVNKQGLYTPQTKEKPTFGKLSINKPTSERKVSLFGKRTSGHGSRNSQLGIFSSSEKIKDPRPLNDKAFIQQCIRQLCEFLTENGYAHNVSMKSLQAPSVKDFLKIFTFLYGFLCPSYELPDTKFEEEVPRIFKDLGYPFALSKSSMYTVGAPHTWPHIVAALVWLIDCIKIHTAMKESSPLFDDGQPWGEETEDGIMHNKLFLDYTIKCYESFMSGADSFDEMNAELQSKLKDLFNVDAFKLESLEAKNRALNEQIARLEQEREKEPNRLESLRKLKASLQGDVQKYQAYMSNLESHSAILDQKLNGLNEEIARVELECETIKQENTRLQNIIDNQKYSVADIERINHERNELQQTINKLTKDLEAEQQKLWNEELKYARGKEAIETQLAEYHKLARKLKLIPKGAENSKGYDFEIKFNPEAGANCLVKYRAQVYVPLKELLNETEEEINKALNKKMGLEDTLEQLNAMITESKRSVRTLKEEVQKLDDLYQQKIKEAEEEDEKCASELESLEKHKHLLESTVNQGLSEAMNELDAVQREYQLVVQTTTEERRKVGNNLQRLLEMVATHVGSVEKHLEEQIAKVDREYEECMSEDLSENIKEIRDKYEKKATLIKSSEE
Description: Co-Immunoprecipitation Analysis: Co-immunoprecipitation (Co-IP)/Western blotting assays were performed to assess the effects of Hec1 inhibitory compounds on Hec1-Nek2 interaction. K562 cells were treated with Hec1 inhibitory compounds as indicated. After harvesting and washing once with cold PBS, cells were lysed on ice in lysis buffer (50 mM Tris (pH 7.5), 250 mM NaCl, 5 mM EDTA (pH 8.0), 0.1% NP-40, 1 mM PMSF, 50 mM NaF, and protease inhibitor cocktail (P/N P8340 Sigma Aldrich, St. Louis Mo. USA) for 30 min. Lysates were then centrifuged at 12,000 rpm at 4° C. for 20 minutes. Input supernatant was incubated in the presence of anti Nek2 antibody (rabbit anti-Nek2, Rockland Immunochemicals, Gilbertsville, Pa. 19525 USA) or IgG control antibody for 2 h at 4° C., followed by the addition protein G coupled to agarose beads (GE Healthcare, Anaheim Calif. 92805 USA). After mixing for 1 h at 4° C., the agarose beads were centrifuged at 12,000 rpm at 4° C. for 20 seconds. The beads were then washed 5 times with cold Co-IP buffer, boiled in SDS-PAGE sample buffer followed by SDS-PAGE. The presence of Hec1 and Nek2 was detected by Western blotting with mouse monoclonal antibodies directed to Hec1 (GeneTex, Inc., Irvine Calif. 92606 USA) and Nek2 (BD Biosciences, San Jose Calif. 95131 USA). […]

cyclin B1 and cyclin D1 = test: Immunoblot of cyclin B1 and cyclin D1; details: 1 μM
Description: Immunoblot Analysis: For immunoblotting experiments, cells were plated in a 6-well culture plate and cultured overnight. Cells were incubated with the test compounds for the indicated time and whole cell lysate was harvested by adding 1×SDS-PAGE Sample Buffer (62.5 mM Tris-HCl (pH 6.8 at 25° C.), 2% w/v SDS, 10% glycerol, 50 mM DTT, and 0.01% w/v bromophenol blue or phenol red). Proteins were separated by SDS-PAGE electrophoresis and transferred to PVDF membrane. Protein expression was immunoblotted using various primary antibodies and detected using Immobilon Western Chemiluminescent HRP Substrate (Millipore, Billerica Mass. 01821 USA). Antibodies used include anti-Cleaved Caspase3, (Rabbit, Cell Signaling Technology, Danvers Mass. 01923 USA); anti-PARP (Rabbit, Cell Signaling Technology, Danvers Mass. 01923 USA); anti-MCL-1 (mouse, BD Biosciences, San Jose Calif. 95131 USA); anti-XIAP (rabbit, Cell Signaling Technology, Danvers Mass. 01923 USA); anti-Bcl-2 (mouse, Santa Cruz Biotechnology, Santa Cruz Calif. 95060); anti-Cyclin BI (mouse, BD Biosciences, San Jose Calif. 95131 USA); anti-Cyclin D1 (mouse, Santa Cruz Biotechnology, Santa Cruz Calif. 95060); Anti-Nek2 (mouse, BD Biosciences, San Jose Calif. 95131 USA); Anti-HEC1, (rabbit, GeneTex, Inc., Irvine Calif. 92606 USA); and anti-actin (mouse, Millipore, Billerica Mass. 01821 USA). […]

MDA-MB-231 = test: Antiproliferation assay (MTS), MDA-MB-231 cells; details: Homo sapiens, MDA-MB-231, 96 h, read-out: Antiproliferative IC50 MDA-MB-231, Table 1
Summary of the method: as §1

IC50 (MDA-MB-468): 19.1 nM
IC50 (K562): 18 nM
IC50 (MDA-MB-231): 35.1 nM
Compound: COCCOc1cnc(Sc2cc(C)c(-c3csc(NC(=O)c4ccncc4)n3)c(C)c2)cn1 [Compound 27, N-(4-{4-(5-(2-methoxyethoxy)pyrazin-2-ylthio)-2,6-dimethylphenyl}thiazol-2-yl)isonicotinamide]
levels of apoptotic (caspase-3, PARP) and anti-apoptotic (Mcl-1, XIAP) proteins [1]: cleavage of the apoptotic proteins accompanied by down-regulation of the anti-apoptotic proteins
Hec1/Nek2 interaction (Hec1 in Nek2 immunoprecipitates) (Hec1-Nek2 interaction): significantly disrupted Hec1/Nek2 interaction
cyclin B1 and cyclin D1 levels (cyclin B1 and cyclin D1): cyclin BI and cyclin D degradation
